Reference: paper PMC4899283 (Structure (London, England : 1993), 2016)

Tests used:
[1] = target: T1, full-length bcMalT (EIIB and EIIC domains) (Bacillus cereus, UniProt Q63GK8); experiment: scintillation proximity assay, competition with [3H]maltose; type: binding; settings: 1 μM [3H]maltose, 4 mM LDAO, pH 7.5, 150 mM NaCl, 4 °C; homologous competition
T1 sequence (Q63GK8 1-545): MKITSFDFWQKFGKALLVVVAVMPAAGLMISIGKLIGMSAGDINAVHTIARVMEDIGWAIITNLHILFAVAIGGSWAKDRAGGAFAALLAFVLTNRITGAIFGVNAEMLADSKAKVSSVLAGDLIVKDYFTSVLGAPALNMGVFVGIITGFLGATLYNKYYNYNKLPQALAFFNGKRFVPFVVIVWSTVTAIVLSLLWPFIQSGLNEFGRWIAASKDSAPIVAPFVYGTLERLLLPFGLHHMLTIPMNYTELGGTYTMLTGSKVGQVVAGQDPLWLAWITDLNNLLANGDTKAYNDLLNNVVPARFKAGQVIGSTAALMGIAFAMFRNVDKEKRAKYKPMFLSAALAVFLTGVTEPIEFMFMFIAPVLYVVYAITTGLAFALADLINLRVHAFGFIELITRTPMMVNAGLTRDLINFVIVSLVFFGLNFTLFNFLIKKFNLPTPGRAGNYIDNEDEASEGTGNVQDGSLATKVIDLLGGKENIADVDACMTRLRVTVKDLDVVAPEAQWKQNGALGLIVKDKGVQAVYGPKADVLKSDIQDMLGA

[2] = target: T1, full-length bcMalT (EIIB and EIIC domains); experiment: as above; type: binding; settings: 1 μM [3H]maltose, 4 mM LDAO, pH 7.5, 150 mM NaCl, 4 °C

| SMILES | IC50 [1] [µM] | binding competition at 500 μM [2] |
| --- | --- | --- |
| OC[C@H]1O[C@H](O[C@H]2[C@H](O)[C@@H](O)C(O)O[C@@H]2CO)[C@H](O)[C@@H](O)[C@@H]1O (some centres unmarked) [maltose] | 4.5 ± 1.1 | – |
| OC[C@H]1O[C@@](CO)(O[C@H]2O[C@H](CO)[C@@H](O)[C@H](O)[C@H]2O)[C@@H](O)[C@@H]1O [sucrose] | – | No significant binding was observed for a number of other sugars tested, with the exception of sucrose |
